In assay [1] the test system is Pichia kudriavzevii. In words: Antifungal activity against Candida krusei ATCC 27803 at 15 ug in 6 mm after 10 hrs by disc-diffusion assay. It counts as functional. As to conditions: ATCC 27803, 10 h, read-out: IZ.
In assay [2] the test system is Candida tropicalis. The assay is described as follows: Antifungal activity against Candida tropicalis ATCC 12968 at 15 ug in 6 mm disk after 10 hrs by disc-diffusion assay. The settings on record: ATCC 12968, 10 h, read-out: IZ. It counts as functional.
Assay [3] deals with Nakaseomyces glabratus. In words: Antifungal activity against Candida glabrata NRRL Y-65 at 15 ug in 6 mm disk after 10 hrs by disc-diffusion assay. As to conditions: NRRL Y-65, 10 h, read-out: IZ. It counts as functional.
The test system of assay [4] is Candida albicans. In words: Antifungal activity against Candida albicans ATCC 12983 at 15 ug in 6 mm disk after 10 hrs by disc-diffusion assay. It counts as functional. The settings on record: ATCC 12983, 10 h, read-out: IZ.
For assay [5], the system named is Candida parapsilosis. In words: Antifungal activity against Candida parapsilosis ATCC 12969 at 15 ug in 6 mm disk after 10 hrs by disc-diffusion assay. It counts as functional. The settings on record: Lodderomyces parapsilosis, ATCC 12969, 10 h; read-out: IZ.
In assay [6] the test system is Streptococcus pyogenes. The assay is described as follows: Antimicrobial activity against Streptococcus pyogenes at 100 ug/disk after 10 hrs by disc-diffusion assay. As to conditions: read-out: IZ. It counts as functional.
The subject of assay [7] is Salmonella enterica. The assay is described as follows: Antimicrobial activity against Salmonella typhimurium at 100 ug/disk after 10 hrs by disc-diffusion assay. The settings on record: read-out: IZ. It counts as functional, Salmonella enterica subsp. enterica serovar Typhimurium.
Assay [8] deals with Staphylococcus aureus. In words: Antimicrobial activity against Staphylococcus aureus ATCC 700787 at 100 ug/disk after 10 hrs by disc-diffusion assay. It counts as functional. As to conditions: ATCC 700787, 10 h, read-out: IZ.
Assay [9] has as its system Escherichia coli. The assay is described as follows: Antimicrobial activity against Escherichia coli at 100 ug/disk after 10 hrs by disc-diffusion assay. The settings on record: read-out: IZ. It counts as functional.
Assay [10] concerns Candida albicans. In words: Antifungal activity against Candida albicans ATCC 12983 at 30 ug in 6 mm disk after 10 hrs by disc-diffusion assay. It counts as functional. As to conditions: ATCC 12983, 10 h, read-out: IZ.
Assay [11] concerns Candida tropicalis. The assay is described as follows: Antifungal activity against Candida tropicalis ATCC 12968 at 30 ug in 6 mm disk after 10 hrs by disc-diffusion assay. It counts as functional. As to conditions: ATCC 12968, 10 h, read-out: IZ.
Assay [12] concerns Candida parapsilosis. In words: Antifungal activity against Candida parapsilosis ATCC 12969 at 30 ug in 6 mm disk after 10 hrs by disc-diffusion assay. It counts as functional. The settings on record: Lodderomyces parapsilosis, ATCC 12969, 10 h; read-out: IZ.
Assay [13] has as its system Staphylococcus epidermidis. In words: Antimicrobial activity against Staphylococcus epidermidis ATCC 12228 at 30 ug in 6 mm disk after 10 hrs by disc-diffusion assay. As to conditions: ATCC 12228, 10 h, read-out: IZ. It counts as functional.
Assay [14] concerns Pichia kudriavzevii. The assay is described as follows: Antifungal activity against Candida krusei ATCC 27803 at 30 ug in 6 mm disk after 10 hrs by disc-diffusion assay. The settings on record: ATCC 27803, 10 h, read-out: IZ. It counts as functional.
Assay [15] has as its system Staphylococcus epidermidis. In words: Antimicrobial activity against Staphylococcus epidermidis ATCC 12228 at 15 ug in 6 mm disk after 10 hrs by disc-diffusion assay. It counts as functional, organism-based.
In assay [16] the test system is Acinetobacter baumannii. In words: Antimicrobial activity against Acinetobacter baumannii ATCC 19606 at 15 ug in 6 mm disk after 10 hrs by disc-diffusion assay. It counts as functional, organism-based.
In assay [17] the test system is Pseudomonas aeruginosa. In words: Antimicrobial activity against Pseudomonas aeruginosa ATCC 10145 at 15 ug in 6 mm disk after 10 hrs by disc-diffusion assay. It counts as functional, organism-based.
Assay [18] relates to Staphylococcus aureus. The assay is described as follows: Antimicrobial activity against Staphylococcus aureus ATCC 700787 at 15 ug in 6 mm disk after 10 hrs by disc-diffusion assay. It counts as functional, organism-based.
Assay [19] has as its system Burkholderia cepacia. The assay is described as follows: Antimicrobial activity against Burkholderia cepacia ATCC 25608 at 15 ug in 6 mm disk after 10 hrs by disc-diffusion assay. It counts as functional, organism-based.
Assay [20] concerns Escherichia coli. The assay is described as follows: Antimicrobial activity against Escherichia coli ATCC 11775 at 15 ug in 6 mm disk after 10 hrs by disc-diffusion assay. It counts as functional, organism-based.
The test system of assay [21] is Klebsiella pneumoniae. The assay is described as follows: Antimicrobial activity against Klebsiella pneumoniae ATCC 33495 at 15 ug in 6 mm disk after 10 hrs by disc-diffusion assay. It counts as functional, organism-based.
The test system of assay [22] is Enterobacter cloacae. The assay is described as follows: Antimicrobial activity against Enterobacter cloacae ATCC 13047 at 15 ug in 6 mm disk after 10 hrs by disc-diffusion assay. It counts as functional, organism-based.

Turning to `CC(=O)N1CCN(c2ccc(OCC3COC(Cn4ccnc4)(c4ccc(Cl)cc4Cl)O3)cc2)CC1` (stereo not drawn) [KETOCONAZOLE], the zone of inhibition at 15 µg/disc in [1], in assay [2], in assay [3], in assay [4] and in assay [5] was 15 mm throughout.
For `C/C=C(/C(=O)O)N1C(=O)C=C(C)C1=O` [PENCOLIDE], the zone of inhibition at 100 µg/disc in assay [6], in assay [7], in assay [8] and in assay [9] was 13 mm in each case.
With `CC[C@H](C)/C=C(C)/C=C/C1=CC2=C(Cl)C(=O)[C@](C)(OC(C)=O)C(=O)C2=CN1` [SCLEROTIORAMINE], the zone of inhibition at 30 µg/disc in assay [10] turned out to be 8 mm; in [11], 8 mm; in [12], 7 mm; in [13], 8 mm; in assay [14], 8 mm.
Take `CC[C@H](C)/C=C(C)/C=C/C1=CC2=C(Cl)C(=O)[C@](C)(OC(C)=O)C(=O)C2=CO1` [SCLEROTIORIN]: the zone of inhibition at 30 µg/disc in assay [13] turned out to be 8 mm.
On to GENTAMICIN, for which the inhibition zone (IZ) in [15], in [16], in assay [17], in assay [18], in [19] and in assay [20] was 8 mm in each case. The inhibition zone (IZ) in assay [21] and in assay [22] was 8 mm throughout.
